Patent US20250263395A1, “COMPOUNDS THAT MEDIATE PROTEIN DEGRADATION AND METHODS OF USE THEREOF” (Monte Rosa Therapeutics AG, priority 2022, published 2025)

Assays:
CRBN-DDB1 = CRBN-DDB1 (Homo sapiens (Human), UniProt Q96SW2); experiment: CRBN HTRF assay (Cy5-Thalidomide probe displacement); assay type: binding; conditions: CRBN-DDB1 2.5 nM, Cy5-Thalidomide 100 nM, 30 min; Ki from geometric mean IC50 by Cheng-Prusoff
Method: Compound activity was monitored in a Homogenous Time-Resolved Fluorescence (HTRF) assay using 1-[5-({2-[2-(2-{[2-(2,6-dioxopiperidin-3-yl)-1,3-dioxo-2,3-dihydro-1H-isoindol-4-yl]oxy}acetamido)ethoxy]ethyl}carbamoyl)pentyl]-3,3-dimethyl-2-[(1E,3E)-5-[(2E)-1,3,3-trimethyl-5-sulfo-2,3-dihydro-1H-indol-2-ylidene]penta-1,3-dien-1-yl]-3H-indol-1-ium-5-sulfonate as a fluorescent probe. Biochemical assays were conducted in Greiner white 384 well HiBase plates (Cat. No 784075-25) in 10 μL total volume. A one pot detection solution of CRBN-DDB1 (2.5 nM), Anti-His Terbium Cryptate Gold (1×, PerkinElmer Cat. #: 61HI2TLB), and Cy5-Thalidomide (100 nM, Tenova Cat.: T52461) was prepared in 20 mM HEPES, 20 mM NaCl, 0.2 mM TCEP, 0.2 mM EDTA, and 0.005% Tween20 was dispensed to each assay plate. Compounds were stored in dry, ambient temperatures at 10 mM. A 10-point, 1:3 dilution series was prepared from 10 mM stock concentrations in Echo-compatible LDV plates. 10 nL of each compound dilution series was dispensed into assays wells using an Echo 650 (Labcyte inc. USA). 10 nL of 10 mM Lenalidomide was transferred into the active-control wells for the assay and 10 nL of DMSO was transferred into the neutral-control wells. The assay was then allowed to incubate for 30 min at ambient temperature after transferring compound. Plate measurements were taken on a Pherastar FSX (BMG Labtech, Germany) using the HTRF Red filter (Ex. 337 nm, em1: 620 nm, em2: 665 nm) (Flashes: 50, Integration time: 60-400 us, Z-height: 10 mm, Ratio-multiplier: 10,000). The HTRF signal was then subsequently normalized to the neutral and active controls. Analysis and IC50 values were derived using KNIME analytics (KNIME Zurich) transformation and fitting within Collaborative Drug Discovery (Collaborative Drug Discovery USA). Ki was derived from the geometric mean of the IC50 values using the Cheng-Prustoff transformation.

CDK2 = CDK2 (Homo sapiens (Human), UniProt P24941); experiment: CDK2 NanoBiT assay (HiBiT-tagged CDK2 degradation); assay type: cell-based; conditions: C-terminal HiBiT tag on CDK2, LgBiT, 24 hours
Method: Example 145. NanoBiT Assay
A HEK293 clonal line with a CRISPR knock-in C-terminal HiBiT tag on CDK2 and stably expressing LgBiT protein was obtained from Promega (Madison, WI). Cells were plated at 5000 cells per well using Multiflo (BioTek) in 384-well white solid bottom plates (Corning, 3570BC) in 25 ul volume in DMEM media (DMEM, high glucose, HEPES, no phenol red (ThermoFisher Scientific, 21063029)) containing 10% FBS (Corning, 35-075-CV), 1% Peniciliin/Streptomycin ((ThermoFisher Scientific, 15140-122), and 1% Endurazine (Nano-Glo Endurazine Live Cell Substrate (Promega, N2571)). Cells were incubated for 16 hours at 37 C, 5% CO2. 75 nL of a compound at 30 μM were dosed into the plate using an Echo® 650 liquid handler (Labcyte). Cells were incubated at 37° C., 5% CO2 for 24 hours and then signal was read on a Pherastar FSX using “LUM plus” optic module.
Analysis was performed in Scinamic (Scinamic, Cambridge, MA). Luminescence response (R) was calculated by the formula: response=100*(S−N)/(P−N) where S is the signal of the well, N and P the mean negative and positive control values respectively of the same plate. The luminescence response was then fitted in Scinamic using a 3-parameter agonist logistic fit (hillslope=1, EC50>0, top/bottom unconstrained).

Sequence of CRBN-DDB1 (Q96SW2 whole entry): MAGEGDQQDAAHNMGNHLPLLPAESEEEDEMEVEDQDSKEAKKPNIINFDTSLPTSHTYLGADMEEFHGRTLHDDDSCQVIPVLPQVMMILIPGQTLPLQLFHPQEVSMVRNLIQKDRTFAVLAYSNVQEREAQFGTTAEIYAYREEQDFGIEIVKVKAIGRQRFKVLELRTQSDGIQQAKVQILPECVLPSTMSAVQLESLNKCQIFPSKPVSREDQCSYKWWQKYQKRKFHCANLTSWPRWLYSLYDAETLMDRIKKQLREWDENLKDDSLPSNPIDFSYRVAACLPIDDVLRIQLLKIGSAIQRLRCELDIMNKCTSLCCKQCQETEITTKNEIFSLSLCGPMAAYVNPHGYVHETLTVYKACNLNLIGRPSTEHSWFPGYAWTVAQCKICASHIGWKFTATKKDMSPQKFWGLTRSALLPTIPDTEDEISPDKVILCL
Sequence of CRBN-DDB1 (Q16531 whole entry partner): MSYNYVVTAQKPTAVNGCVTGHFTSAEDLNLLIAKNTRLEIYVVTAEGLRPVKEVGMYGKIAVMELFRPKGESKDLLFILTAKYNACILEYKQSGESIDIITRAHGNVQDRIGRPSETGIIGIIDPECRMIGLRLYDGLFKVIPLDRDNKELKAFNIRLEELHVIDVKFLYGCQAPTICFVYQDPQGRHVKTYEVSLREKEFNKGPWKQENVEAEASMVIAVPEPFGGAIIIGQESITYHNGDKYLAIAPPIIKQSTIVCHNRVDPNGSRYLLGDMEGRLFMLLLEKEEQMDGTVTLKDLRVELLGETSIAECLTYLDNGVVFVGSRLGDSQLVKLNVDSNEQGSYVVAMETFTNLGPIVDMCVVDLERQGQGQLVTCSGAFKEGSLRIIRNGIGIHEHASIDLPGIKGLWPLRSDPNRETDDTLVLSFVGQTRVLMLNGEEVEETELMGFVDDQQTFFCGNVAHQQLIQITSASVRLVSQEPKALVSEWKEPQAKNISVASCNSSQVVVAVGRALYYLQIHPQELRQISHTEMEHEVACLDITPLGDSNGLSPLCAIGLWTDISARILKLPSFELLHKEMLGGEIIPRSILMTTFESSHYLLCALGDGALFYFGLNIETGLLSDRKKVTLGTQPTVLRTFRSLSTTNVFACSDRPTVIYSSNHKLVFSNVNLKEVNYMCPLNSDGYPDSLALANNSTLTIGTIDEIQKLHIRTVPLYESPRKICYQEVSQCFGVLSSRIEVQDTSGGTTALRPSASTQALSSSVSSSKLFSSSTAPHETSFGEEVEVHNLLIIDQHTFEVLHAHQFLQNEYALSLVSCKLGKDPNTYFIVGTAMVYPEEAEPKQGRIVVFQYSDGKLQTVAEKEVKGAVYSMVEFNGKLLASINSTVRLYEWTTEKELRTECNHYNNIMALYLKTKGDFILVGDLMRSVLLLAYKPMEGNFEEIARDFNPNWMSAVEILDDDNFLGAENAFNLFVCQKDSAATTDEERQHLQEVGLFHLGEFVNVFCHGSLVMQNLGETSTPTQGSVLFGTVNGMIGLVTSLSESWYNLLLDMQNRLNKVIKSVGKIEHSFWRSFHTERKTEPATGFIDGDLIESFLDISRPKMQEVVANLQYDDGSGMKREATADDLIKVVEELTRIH

SMILES	Ki (CRBN-DDB1) [nM]	Dmax (CDK2; HEK293, HEK293 clonal line) [%]	Dmax (CDK2; HEK293 clonal line) [%]
O=C1CCC(c2c(F)cc(N3CC(NC(=O)OC4CN(C(=O)N5CC6(CCC6)C5)C4)C3)cc2F)C(=O)N1 (stereo not shown) [Compound 31, 1-(2-azaspiro[3.3]heptane-2-carbonyl)azetidin-3-yl (1-(4-(2,6-dioxopiperidin-3-yl)-3,5-difluorophenyl)azetidin-3-yl)carbamate]	≤ 100	50 to 80	–
O=C1CCC(c2c(F)cc(N3CC(NC(=O)OC4CN(C(=O)N5CCC56CCC6)C4)C3)cc2F)C(=O)N1 (stereo not shown) [Compound 33, 1-(1-azaspiro[3.3]heptane-1-carbonyl)azetidin-3-yl (1-(4-(2,6-dioxopiperidin-3-yl)-3,5-difluorophenyl)azetidin-3-yl)carbamate]	≤ 100	50 to 80	–
O=C1CCC(c2c(F)cc(N3CC(NC(=O)OCCc4ccccc4)C3)cc2F)C(=O)N1 (stereo not shown) [Compound 34, phenethyl (1-(4-(2,6-dioxopiperidin-3-yl)-3,5-difluorophenyl)azetidin-3-yl)carbamate]	100 to 1000	50 to 80	–
O=C1CCC(c2c(F)cc(N3CC(NC(=O)OCc4ccc(OC(F)(F)F)cc4)C3)cc2F)C(=O)N1 (stereo not shown) [Compound 35, 4-(trifluoromethoxy)benzyl (1-(4-(2,6-dioxopiperidin-3-yl)-3,5-difluorophenyl)azetidin-3-yl)carbamate]	100 to 1000	> 80	–
O=C1CCC(c2c(F)cc(N3CC(NC(=O)OC4CN(C(=O)N5CCCCC5)C4)C3)cc2F)C(=O)N1 (stereo not shown) [Compound 36, 1-(piperidine-1-carbonyl)azetidin-3-yl (1-(4-(2,6-dioxopiperidin-3-yl)-3,5-difluorophenyl)azetidin-3-yl)carbamate]	≤ 100	50 to 80	–
O=C1CCC(c2c(F)cc(N3CC(NC(=O)OCc4ccccc4)C3)cc2F)C(=O)N1 (stereo not shown) [Compound 37, benzyl (1-(4-(2,6-dioxopiperidin-3-yl)-3,5-difluorophenyl)azetidin-3-yl)carbamate]	100 to 1000	50 to 80	–
O=C1CCC(c2c(F)cc([C@@H]3C[C@H]3NC(=O)OCC3CC4(CCC4)C3)cc2F)C(=O)N1 (stereo partly shown) [Compound 38]	≤ 100	> 80	–
CC(C)O[C@H]1C[C@@H](OC(=O)NC2CN(c3cc(F)c(C4CCC(=O)NC4=O)c(F)c3)C2)C1 (stereo partly shown) [Compound 39, (1s, 3s)-3-isopropoxycyclobutyl (1-(4-(2,6-dioxopiperidin-3-yl)-3,5-difluorophenyl)azetidin-3-yl)carbamate]	≤ 100	50 to 80	–
CN(C(=O)N1CC(OC(=O)NC2CN(c3cc(F)c(C4CCC(=O)NC4=O)c(F)c3)C2)C1)C1CC1 (stereo not shown) [Compound 40, 1-(cyclopropyl(methyl)carbamoyl)azetidin-3-yl (1-(4-(2,6-dioxopiperidin-3-yl)-3,5-difluorophenyl)azetidin-3-yl)carbamate]	≤ 100	50 to 80	–
O=C1CCC(c2c(F)cc(N3CC(NC(=O)OC4CN(C(=O)C5CC5)C4)C3)cc2F)C(=O)N1 (stereo not shown) [Compound 41, 1-(cyclopropanecarbonyl)azetidin-3-yl (1-(4-(2,6-dioxopiperidin-3-yl)-3,5-difluorophenyl)azetidin-3-yl)carbamate]	≤ 100	10 to 50	–
O=C1CCC(c2c(F)cc(N3CC(NC(=O)OC4CN(S(=O)(=O)C5CC5)C4)C3)cc2F)C(=O)N1 (stereo not shown) [Compound 42, 1-(cyclopropylsulfonyl)azetidin-3-yl (1-(4-(2,6-dioxopiperidin-3-yl)-3,5-difluorophenyl)azetidin-3-yl)carbamate]	≤ 100	10 to 50	–
CN(CC1CC1)C(=O)N1CC(OC(=O)NC2CN(c3cc(F)c(C4CCC(=O)NC4=O)c(F)c3)C2)C1 (stereo not shown) [Compound 43, 1-((cyclopropylmethyl)(methyl)carbamoyl)azetidin-3-yl (1-(4-(2,6-dioxopiperidin-3-yl)-3,5-difluorophenyl)azetidin-3-yl)carbamate]	≤ 100	50 to 80	–
COc1c(N2CC(NC(=O)OCC3CC4(CCC4)C3)C2)ccc(C2CCC(=O)NC2=O)c1F (stereo not shown) [Compound 44, spiro[3.3]heptan-2-ylmethyl (1-(4-(2,6-dioxopiperidin-3-yl)-3-fluoro-2-methoxyphenyl)azetidin-3-yl)carbamate]	100 to 1000	> 80	–
CN(C)C(=O)N1CC(OC(=O)NC2CN(c3cc(F)c(C4CCC(=O)NC4=O)c(F)c3)C2)C1 (stereo not shown) [Compound 45, 1-(dimethylcarbamoyl)azetidin-3-yl (1-(4-(2,6-dioxopiperidin-3-yl)-3,5-difluorophenyl)azetidin-3-yl)carbamate]	≤ 100	10 to 50	–
CC(C)(C)O[C@H]1C[C@@H](OC(=O)NC2CN(c3cc(F)c(C4CCC(=O)NC4=O)c(F)c3)C2)C1 (stereo partly shown) [Compound 46, (1s, 3s)-3-(tert-butoxy)cyclobutyl (1-(4-(2,6-dioxopiperidin-3-yl)-3,5-difluorophenyl)azetidin-3-yl)carbamate]	≤ 100	50 to 80	–
CC(C)(C)[Si](C)(C)O[C@H]1C[C@H](OC(=O)NC2CN(c3cc(F)c(C4CCC(=O)NC4=O)c(F)c3)C2)C1 (stereo partly shown) [Compound 47, (1r, 3r)-3-((tert-butyldimethylsilyl)oxy)cyclobutyl (1-(4-(2,6-dioxopiperidin-3-yl)-3,5-difluorophenyl)azetidin-3-yl)carbamate]	≤ 100	–	> 80
CC(C)(C)[Si](C)(C)O[C@H]1C[C@@H](OC(=O)NC2CN(c3cc(F)c(C4CCC(=O)NC4=O)c(F)c3)C2)C1 (stereo partly shown) [Compound 48]	≤ 100	–	> 80
CC(C)(C)[Si](C)(C)O[C@H]1C[C@@H](COC(=O)NC2CN(c3cc(F)c(C4CCC(=O)NC4=O)c(F)c3)C2)C1 (stereo partly shown) [Compound 49, ((1s, 3s)-3-((tert-butyldimethylsilyl)oxy)cyclobutyl)methyl (1-(4-(2,6-dioxopiperidin-3-yl)-3,5-difluorophenyl)azetidin-3-yl)carbamate]	100 to 1000	> 80	–
CC(C)(C)[Si](C)(C)O[C@H]1C[C@H](COC(=O)NC2CN(c3cc(F)c(C4CCC(=O)NC4=O)c(F)c3)C2)C1 (stereo partly shown) [Compound 50, ((1r, 3r)-3-((tert-butyldimethylsilyl)oxy)cyclobutyl)methyl (1-(4-(2,6-dioxopiperidin-3-yl)-3,5-difluorophenyl)azetidin-3-yl)carbamate]	100 to 1000	> 80	–
O=C1CCC(c2c(F)cc(N3CC(NC(=O)OCC4CCCCC4)C3)cc2F)C(=O)N1 (stereo not shown) [Compound 51, cyclohexylmethyl (1-(4-(2,6-dioxopiperidin-3-yl)-3,5-difluorophenyl)azetidin-3-yl)carbamate]	≤ 100	> 80	–
C[C@H]1CC[C@H](COC(=O)NC2CN(c3cc(F)c(C4CCC(=O)NC4=O)c(F)c3)C2)CC1 (stereo partly shown) [Compound 52, ((1r, 4r)-4-methylcyclohexyl)methyl (1-(4-(2,6-dioxopiperidin-3-yl)-3,5-difluorophenyl)azetidin-3-yl)carbamate]	≤ 100	> 80	–
CC1(C)CCC(COC(=O)NC2CN(c3cc(F)c(C4CCC(=O)NC4=O)c(F)c3)C2)CC1 (stereo not shown) [Compound 53, (4,4-dimethylcyclohexyl)methyl (1-(4-(2,6-dioxopiperidin-3-yl)-3,5-difluorophenyl)azetidin-3-yl)carbamate]	≤ 100	> 80	–
O=C1CC[C@H](c2c(F)cc(N3CC[C@@H](NC(=O)OCC4CC5(CCC5)C4)C3=O)cc2F)C(=O)N1 [Compound 54, spiro[3.3]heptan-2-ylmethyl ((R)-1-(4-((R)-2,6-dioxopiperidin-3-yl)-3,5-difluorophenyl)-2-oxopyrrolidin-3-yl)carbamate]	≤ 100	50 to 80	–
